Source: patent US11162937B2, “Patient selection method for inflammation” (Purdue Research Foundation, priority 2013, dated 2021)

Tests used:
CIA mice [1] = test: Collagen-induced arthritis (CIA) mice: ^99mTc-EC20 radioimaging, arthritis score and paw thickness under anti-inflammatory therapy; details: for disease symptoms (arthritis score, paw swelling) relative to disease control / uptake of ^99mTc-EC20 in the affected appendages relative to disease control: day 3 of therapy; for uptake of ^99mTc-EC20 in the affected appendages relative to disease control: 150 μCi ^99mTc-EC20 i.p., imaged after 4 h
Experimental: Collagen-induced arthritis (CIA) was initiated using established methods on 6-7 week old female DBA/1 mice (Jackson Laboratories) maintained on folate-deficient diet (Harlan-Teklad). Briefly, mice were immunized at the base of the tail with 100 μg bovine type II collagen emulsified in complete Freund's adjuvant (Chondrex, Inc., Redmond, Wash., USA). Mice were then boosted 21 days later with a similar injection of 100 μg bovine type II collagen emulsified in incomplete Freund's adjuvant. After four days, onset of arthritis was synchronized in all mice with an intraperitoneal injection of 25 μg lipopolysaccharide (LPS) dissolved in saline. Three days later mice were distributed equally across control and treatment groups (n=5). Healthy mice and disease control mice received daily intraperitoneal injections of 100 μL saline. […] Arthritis scores were assessed every other day by researchers blinded to the various treatment groups, using the following scoring system: 0=normal; 1=mild, but definite redness and swelling of the ankle or wrist, or apparent redness and swelling limited to individual digits, regardless of the number of affected digits; 2=moderate redness and swelling of ankle or wrist; 3=severe redness and swelling of the entire paw including digits; 4=maximally inflamed limb with involvement of multiple joints. A total score for each mouse was calculated by summing the scores for each of the four paws, allowing a maximum possible score of 16 per animal. Paw thickness was measured with calipers every other day starting on the first day of treatment. On day 3 of treatment, mice were anesthetized with isoflurane and imaged with ^99mTc-EC20 as described below. Mice were again imaged and then euthanized by CO2 asphyxiation on day 11 of treatment.
(§1) ^99mTc-EC20 was prepared as previously described in C. P. Leamon, M. A. Parker, I. R. Vlahov, L. Xu, J. A. Reddy, M. Vetzel, N. Douglas, Synthesis and Biological Evaluation of EC20: A New Folate-Derived, ^99mTc-Based Radiopharmaceutical. Bioconjugate Chem. 13, 1200-1210 (2002), incorporated herein by reference. A preparation method for ^99mTc-EC20 is also described in U.S. Pat. No. 7,128,893, incorporated herein by reference. Briefly, 1 mL of 15 mCi/mL sodium pertechnetate (Cardinal Health) was added to 0.1 mg of EC20 (a gift from Endocyte, Inc.) and heated at 100° C. for 18 min. After diluting with saline, 100 μL ^99mTc-EC20 (150 μCi (˜75 nmol of EC20 per kilogram for CIA, ulcerative colitis and pulmonary fibrosis mice) or 300 μCi (˜150 nmol of EC20 per kilogram for atherosclerosis)) was injected intraperitoneally into the desired mice, and unbound ^99mTc-EC20 was allowed to clear from tissues for 4 h. Mice were then either anesthetized with 3% isoflurane (CIA, atherosclerosis, and pulmonary fibrosis mice) or euthanized (ulcerative colitis mice) prior to image acquisition using a Kodak Image Station operated with Kodak molecular imaging software (version 4.5; Carestream Molecular Imaging). Radioimages were acquired for 2 minutes using a radioisotopic phosphor screen, no illumination source, 4×4 binning, focal plane=5, FOV=160, and f-stop=0. White light images were acquired for 0.175 seconds with white light transillumination source, no binning, focal plane=5, FOV=160, and f-stop=11.
Mice were induced to develop collagen-induced arthritis (CIA, a well-established model of rheumatoid arthritis) and subjected 28 days later to treatment with methotrexate, dexamethasone or saline (disease control). Three days after initiation of therapy, the mice were injected with 150 μCi of ^99mTc-EC20 and subjected to their first planned radioimage analysis.

[2] = system: mice with ulcerative colitis; test: DSS-induced ulcerative colitis mice: ^99mTc-EC20 radioimaging of colon, clinical score and colon length under therapy; assay type: in vivo; details: for clinical scores compared to disease control mice / colon shortening compared to disease control mice: after 8 days of continuous therapy; for clinical scores or colon lengths relative to saline-treated mice / ^99mTc-EC20 uptake in colon relative to saline-treated mice: day 4 of therapy; for ^99mTc-EC20 uptake in colon relative to saline-treated mice: 150 μCi ^99mTc-EC20; for ^99mTc-EC20 radioimages compared with the earlier time point (day 4): day 8 of therapy
Experimental: Ulcerative colitis was induced as previously described in S. Wirtz, C. […] Nat Protoc. 2, 541-546 (2007), incorporated herein by reference. Seven week old Balb/c mice (Harlan Laboratories) maintained on a folate-deficient diet were administered 5% dextran sodium sulfate (DSS) in their drinking water. Mice were divided into treatment groups (n=10 per group). Healthy mice and disease control mice received 100 μL saline daily by oral gavage. Diseased mice were treated daily with cimetidine (100 mg/kg) or sulphasalazine (150 mg/kg) by oral gavage. Healthy mice were maintained on normal water and similarly treated with saline. Disease symptoms were assessed daily and quantitated by adding the scores from each of the following tests: Weight loss: 0=no weight loss, 1=1-5% weight loss, 2=6-10% weight loss, 3=11-15% weight loss, 4=>15% weight loss; Stool appearance: 0=normal, 1=loose feces, 2=diarrhea; Hematochezia (blood in stool): 0=no blood, 1=positive via guaiac paper, 2=visually bloody; Overall appearance: 0=normal, 1=ruffled fur/altered gait, 2=lethargic, moribund. On day 4 of therapy, half of each treatment group (n=5) received an intraperitoneal injection of ^99mTc-EC20. After 4 hours, the injected mice were euthanized and the bladder and kidneys were removed to reduce background radiation associated with ^99mTc-EC20 undergoing excretion. Mice were then imaged to assess uptake of ^99mTc-EC20 in the colon, and the colons were removed and measured with calipers to evaluate colon shortening as a measure of disease severity. On day 8, the remaining mice were injected with ^99mTc-EC20 and analyzed similarly.
as §1
Mice (n=10/group) were administered 5% dextran sulfate sodium (DSS) in water to induce ulcerative colitis and then treated daily with cimetidine, sulphasalazine or saline (disease control). Then on day 4, half of the mice (n=5/group) were injected with 150 μCi ^99mTc-EC20 and euthanized in preparation for subsequent imaging of their colons.

macrophage accumulation = test: Flow cytometric analysis (F480-PE) of macrophage accumulation in large intestine of ulcerative colitis mice; assay type: in vivo; details: after 4 days of treatment, F480-PE flow cytometry
Experimental: Ulcerative colitis was induced as described. Seven week old Balb/c mice (Harlan Laboratories) maintained on a folate-deficient diet were administered 5% dextran sodium sulfate (DSS) in their drinking water. Healthy control mice were maintained on normal water. Mice were divided into treatment groups (n=3 per group). Healthy mice and disease control mice received 100 μL saline daily by oral gavage. Diseased mice were treated daily with cimetidine (100 mg/kg) or sulphasalazine (150 mg/kg) by oral gavage. After 4 days of treatment, mice were euthanized and large intestines were removed. Equal weights of the large intestines were digested and made into single cell suspensions. Cells were included with mouse macrophage marker F480-PE and analyzed by flow cytometry.

CIA mice [3] = details: prior finding; cited from earlier work
ApoE−/− mice [4] = test: Atherosclerosis in ApoE−/− mice on high fat diet: ^99mTc-EC20 radioimaging and aortic histology under therapy; assay type: in vivo
Experimental: Five week old male ApoE−/− mice were purchased from Jackson Laboratories and placed on an adjusted calorie diet (42% from fat, Harlan Laboratories). Healthy control mice (C57BL/6) were similarly maintained on normal chow. Mice were divided into therapy groups (n=5). Healthy mice and disease control mice received 100 μL saline daily by oral gavage. Diseased mice were treated daily with valsartan (1 mg/kg), or fluvastatin (3 mg/kg) by oral gavage. After three weeks of treatment, mice were imaged with 300 μCi ^99mTc-EC20. Mice were again imaged with ^99mTc-EC20 after 12 weeks of therapy and then euthanized by CO2 asphyxiation. Aortas were dissected and H&E and oil red O staining was performed.
(§2) ^99mTc-EC20 was prepared as previously described in C.
The ability to predict response to therapy might be most useful when applied to treatment of inflammatory/autoimmune diseases that are either intrinsically difficult to monitor or slow to respond to therapeutic intervention. Because atherosclerosis suffers from both disadvantages due to its inaccessible location and slow rate of progression, ^99mTc-EC20 was analyzed to determine if it might be effective in predicting response to therapy in a common murine model of heart disease. […] After 3 weeks of daily treatment, when no morphological symptoms of heart disease could be detected, mice were anesthetized and imaged with ^99mTc-EC20.

ApoE−/− mice [5] = details: prior finding; cited from earlier work
[6] = system: mice with pulmonary fibrosis; test: Bleomycin-induced pulmonary fibrosis mice: ^99mTc-EC20 radioimaging, BAL cell count, lung hydroxyproline, H&E; assay type: in vivo
Experimental: Pulmonary fibrosis was induced in mice as previously described in B. B. Moore, C. M. Hogaboam, Murine models of pulmonary fibrosis. Am J Physiol Lung Cell Mol Physiol. 294, L152-160 (2008), incorporated herein by reference. Briefly, 6 week old female C57BL/6 mice (Harlan Laboratories) maintained on a folate-deficient diet were anaesthetized with isoflurane, and 50 μL of bleomycin (2 U/kg body weight) dissolved in saline was intratracheally instilled into each mouse. Healthy control mice were similarly intratracheally instilled with 50 μL saline. Mice were then separated into treatment groups (n=5). […] Diseased mice were injected every day intraperitoneally with dexamethasone (0.5 mg/kg) or etanercept (300 μg). Mice were imaged with ^99mTc-EC20 after 6 days of treatment and again after 15 days of treatment. Mice were then euthanized by CO2 asphyxiation and bronchoalveolar lavage fluid was collected and cells were counted using a Beckman Coulter Z™ Series COULTER COUNTER® Cell and Particle Counter. The left lung was fixed in formalin and submitted to the Purdue Histology & Phenotyping Laboratory for H&E staining and the right lung was used for analysis of hydroxyproline content using a hydroxyproline assay kit from Sigma-Aldrich (St. Louis, Mo.).
as §2
Since pulmonary fibrosis is thought to be primarily driven by M2 macrophages, C57BL/6 mice were induced to develop an acute form of lung fibrosis by intratracheal instillation of bleomycin. Immediately following disease induction, mice were treated daily with intraperitoneal injections of dexamethasone, etanercept, or saline, and then imaged with ^99mTc-EC20 six days later.

In the case of `Nc1nc2ncc(CNc3ccc(C(=O)N[C@H](CCC(=O)NC[C@@H]4[NH][99Tc]56(=[O])[S]C[C@@H](C(=O)O)[N]5C(=O)[C@H](CC(=O)O)[N]6C4=O)C(=O)O)cc3)nc2c(=O)[nH]1` [^99mTc-EC20], the “accumulation of ^99mTc-EC20 in inflamed appendages” value (CIA mice [1]; CIA mice not treated with any anti-inflammatory drug, 150 μCi i.p.) is reported as “exhibited the accumulation of ^99mTc-EC20 in their inflamed appendages”.
With `CN/C(=N/CCSCc1nc[nH]c1C)NC#N` [cimetidine] the “clinical scores compared to disease control mice” value [2] was “significantly lower”, the “colon shortening compared to disease control mice” value [2] was “reduced colon shortening” and the “clinical scores or colon lengths relative to saline-treated mice” value [2] was “no significant difference”. For the same compound, the “^99mTc-EC20 uptake in colon relative to saline-treated mice” value [2] was “significantly less”, the “^99mTc-EC20 radioimages compared with the earlier time point (day 4)” value [2] was “essentially unchanged” and the “macrophage accumulation in large intestine compared to the disease control group” value (macrophage accumulation) was “reduced macrophage accumulation”.
With `CN(Cc1cnc2nc(N)nc(N)c2n1)c1ccc(C(=O)N[C@@H](CCC(=O)O)C(=O)O)cc1` [methotrexate] the “disease symptoms (arthritis score, paw swelling) relative to disease control” value (CIA mice [1]; CIA mice) was “no reduction”, the “uptake of ^99mTc-EC20 in the affected appendages relative to disease control” value (CIA mice [1]; CIA mice) was “markedly less” and the “disease symptoms / joint inflammation (arthritis score, paw thickness) relative to disease control” value (CIA mice [1]; CIA mice, day 11 of therapy) was “substantially resolved”. For the same compound, the “uptake of ^99mTc-EC20 (radioimages)” value (CIA mice [1]; CIA mice, day 11 of therapy) was “significantly reduced uptake”.
For `COc1ccc2cc([C@H](C)C(=O)O)ccc2c1` [naproxen], the “efficacy in the CIA model of arthritis in mice (previously found)” value (CIA mice [3]) is given as “little efficacy”.
For `O=C(O)c1cc(/N=N/c2ccc(S(=O)(=O)Nc3ccccn3)cc2)ccc1O` [sulphasalazine], the “clinical scores compared to disease control mice” value [2] was “significantly lower”, the “colon shortening compared to disease control mice” value [2] was “reduced colon shortening” and the “clinical scores or colon lengths relative to saline-treated mice” value [2] was “no significant difference”. The “^99mTc-EC20 uptake in colon relative to saline-treated mice” value [2] was “significantly less”, the “^99mTc-EC20 radioimages compared with the earlier time point (day 4)” value [2] was “essentially unchanged” and the “macrophage accumulation in large intestine compared to the disease control group” value (macrophage accumulation) was “reduced macrophage accumulation”.
In the case of `CCCCC(=O)N(Cc1ccc(-c2ccccc2-c2nnn[nH]2)cc1)[C@H](C(=O)O)C(C)C` [valsartan], the “^99mTc-EC20 uptake in chest cavities relative to saline-treated mice” value (ApoE−/− mice [4]; after 3 weeks of daily treatment) is listed as “significantly less”, the “aortic wall thickening relative to saline-treated mice” value (ApoE−/− mice [4]; after 12 weeks of daily therapy, H&E) is listed as “significantly reduced” and the “plaque formation in murine models of atherosclerosis (have been shown)” value (ApoE−/− mice [5]) is listed as “reduce plaque formation”.
In the case of etanercept, the “disease symptoms (arthritis score, paw swelling) relative to disease control” value (CIA mice [1]; CIA mice) is reported as “no significant difference”, the “uptake of ^99mTc-EC20 in the affected appendages relative to disease control” value (CIA mice [1]; CIA mice) is reported as “significantly less uptake” and the “disease symptoms / joint inflammation (arthritis score, paw thickness) relative to disease control” value (CIA mice [1]; CIA mice, day 11 of therapy) is reported as “significantly reduced inflammation”. The “fibrosis by H&E analysis of the lungs” value ([6]; day 15 of treatment) was “reduced fibrosis”, the “hydroxyproline contents in resected lung tissues compared to saline-treated controls” value ([6]; day 15 of treatment) was “reduced hydroxyproline contents” and the “total cell counts in bronchoalveolar lavage fluids compared to saline-treated controls” value ([6]; day 15 of treatment) was “decreased total cell counts”. For the same compound, the “accumulation of ^99mTc-EC20 compared to saline-treated disease controls” value ([6]; six days of treatment) was “decreased accumulation”.
